From patent US20160229839A1, “Factor XIa Inhibitors” (Merck Sharp & Dohme Corp., priority 2013, published 2016) come the findings set out here.

Structures are written as SMILES.

The assay concerns the target T1, purified human Factor XIa (Homo sapiens, UniProt P03951).
T1 construct: purified human Factor XIa; purchased Sekisui Diagnostics
As to the kind of experiment: Factor XIa Assay (fluorogenic substrate Z-Gly-Pro-Arg-AFC). The following applies: purified human Factor XIa 40 pM; Z-Gly-Pro-Arg-AFC 100 μM; 50 mM HEPES pH 7.4; read-out: hFXIa Ki (nM), Factor XIa inhibition. Format: biochemical. Here is the method: The effectiveness of compound of the present invention as inhibitors of Coagulation Factor XIa can be determined using a relevant purified serine protease, and an appropriate synthetic substrate. The rate of hydrolysis of the chromogenic or fluorogenic substrate by the relevant serine protease was measured both in the absence and presence of compounds of the present invention. Assays were conducted at room temperature or at 37° C. […] A decrease in the rate of fluorescence change in the presence of inhibitor is indicative of enzyme inhibition. Such methods are known to one skilled in the art. The results of this assay are expressed as the inhibitory constant, Ki.
Factor XIa determinations were made in 50 mM HEPES buffer at pH 7.4 containing 150 mM NaCl, 5 mM CaCl2, and 0.1% PEG 8000 (polyethylene glycol; J T Baker or Fisher Scientific). Determinations were made using purified human Factor XIa at a final concentration of 40 pM (Sekisui Diagnostics) and he synthetic substrate, Z-Gly-Pro-Arg-AFC, TFA salt (Sigma #C0980) at a concentration of 100 μM.
Activity assays were performed by diluting a stock solution of substrate at least tenfold to a final concentration ≦0.1 Km into a solution containing enzyme or enzyme equilibrated with inhibitor. Times required to achieve equilibration between enzyme and inhibitor were determined in control experiments. Initial velocities of product formation in the absence (Vo) or presence of inhibitor (Vi) were measured. Assuming competitive inhibition, and that unity is negligible compared Km/[S], [I]/e, and [I]/e (where [S], [I], and e respectively represent the total concentrations, of substrate, inhibitor and enzyme), the equilibrium constant (Ki) for dissociation of the inhibitor from the enzyme can be obtained from the dependence of Vo/Vi on [I] shown in the following equation.

T1 sequence (P03951 388-625 limits assumed): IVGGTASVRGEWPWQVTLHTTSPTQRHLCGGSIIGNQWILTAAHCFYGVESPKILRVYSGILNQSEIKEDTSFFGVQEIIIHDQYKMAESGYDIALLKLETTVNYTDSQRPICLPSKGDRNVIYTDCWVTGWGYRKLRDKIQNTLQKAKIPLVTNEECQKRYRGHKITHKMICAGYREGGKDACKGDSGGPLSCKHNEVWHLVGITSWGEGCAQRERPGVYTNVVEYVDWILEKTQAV
T1 sequence (P03951 19-387 partner limits assumed): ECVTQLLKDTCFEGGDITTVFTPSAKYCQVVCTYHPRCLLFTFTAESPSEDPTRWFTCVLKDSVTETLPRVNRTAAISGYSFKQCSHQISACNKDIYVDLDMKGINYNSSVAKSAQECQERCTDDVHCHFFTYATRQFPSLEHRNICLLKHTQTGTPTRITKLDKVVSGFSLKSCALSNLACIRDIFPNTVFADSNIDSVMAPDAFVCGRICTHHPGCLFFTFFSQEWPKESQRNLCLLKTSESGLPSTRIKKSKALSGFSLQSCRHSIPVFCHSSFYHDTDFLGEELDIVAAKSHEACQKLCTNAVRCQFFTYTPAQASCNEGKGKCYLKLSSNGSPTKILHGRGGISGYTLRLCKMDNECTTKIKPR

Usually Ki stands for a dissociation constant, usually derived from enzyme kinetics or from competition with a known ligand. Consider `CC(C)(C)OC(=O)c1ccc(NC(=O)C2C(c3ccccc3)CCCN2C(=O)/C=C/c2cc(Cl)ccc2-n2cnnn2)cc1` (racemic) [Example 1-1, (E)-tert-butyl 4-(1-(3-(5-chloro-2-(1H-tetrazol-1-yl)phenyl)acryloyl)-3-phenylpiperidine-2-carboxamido)benzoate], for which the Ki was greater than 10000 nM.
As to `O=C(O)c1ccc(NC(=O)[C@@H]2[C@H](c3ccccc3)CCCN2C(=O)/C=C/c2cc(Cl)ccc2-n2cnnn2)cc1` (racemic) [Example 1-2, (E)-1-(2-(3-(2-((4-carboxyphenyl)carbamoyl)-3-phenylpiperidin-1-yl)-3-oxoprop-1-en-1-yl)-4-chlorophenyl)-1H-tetrazol-2-ium 2,2,2-trifluoroacetate], the Ki is 80.9 nM.
`NC1CCc2cc(C(=O)N3CCCC(c4ccccc4)C3C(=O)Nc3ccc(C(=O)O)cc3)ccc21` (racemic) [Example 1-14, 4-(1-(1-amino-2,3-dihydro-1H-indene-5-carbonyl)-3-phenylpiperidine-2-carboxamido)benzoic acid]: the Ki was 572 nM.
For the compound `COC(=O)c1cccc(-c2c[nH]c(C3C(c4ccccc4)CCCN3C(=O)/C=C/c3cc(Cl)ccc3-n3cnnn3)n2)c1` (racemic) [Example 1-54, (E)-methyl 3-(2-(1-(3-(5-chloro-2-(1H-tetrazol-1-yl)phenyl)acryloyl)-3-phenylpiperidin-2-yl)-1H-imidazol-4-yl)benzoate], the Ki was greater than 10000 nM.
As for `O=C(O)c1ccc(NC(=O)[C@@H]2[C@H](c3ccccc3)CCCN2C(=O)/C=C/c2cc(Cl)ccc2-n2cnnn2)cc1` (single isomer, unassigned) [Example 1-57], the Ki is 7.6 nM.
In the case of `O=C(O)c1cccc(-c2c[nH]c([C@@H]3[C@H](c4ccccc4)CCCN3C(=O)/C=C/c3cc(Cl)ccc3-n3cnnn3)n2)c1` (single isomer, unassigned) [Example 1-69] it was 19.3 nM.
Consider `O=C(O)c1cccc(-c2c[nH]c([C@H]3[C@@H](c4ccccc4)CCCN3C(=O)/C=C/c3cc(Cl)ccc3-n3cnnn3)n2)c1` (single isomer, unassigned) [Example 1-70], for which the Ki was 5730 nM.
In the case of `CC(C)(C)OC(=O)c1ccc(NC(=O)C2C(C3CCCCC3)CCCN2C(=O)/C=C/c2cc(Cl)ccc2-n2cnnn2)cc1` (stereo not shown) [Example 1-3, (E)-tert-butyl 4-(1-(3-(5-chloro-2-(1H-tetrazol-1-yl)phenyl)acryloyl)-3-cyclohexylpiperidine-2-carboxamido)benzoate] it was greater than 10000 nM; in that of `CC(C)(C)OC(=O)C1CCC(NC(=O)C2C(C3CCCCC3)CCCN2C(=O)/C=C/c2cc(Cl)ccc2-n2cnnn2)CC1` (stereo not shown) [Example 1-4, (E)-tert-butyl 4-(1-(3-(5-chloro-2-(1H-tetrazol-1-yl)phenyl)acryloyl)-3-cyclohexylpiperidine-2-carboxamido)cyclohexanecarboxylate], greater than 10000 nM.
In the case of `O=C(O)c1ccc(NC(=O)C2C(C3CCCCC3)CCCN2C(=O)/C=C/c2cc(Cl)ccc2-n2cnnn2)cc1` (stereo not shown) [Example 1-5, (E)-1-(2-(3-(2-((4-carboxyphenyl)carbamoyl)-3-cyclohexylpiperidin-1-yl)-3-oxoprop-1-en-1-yl)-4-chlorophenyl)-1H-tetrazol-2-ium 2,2,2-trifluoroacetate] it was 44 nM; in that of `O=C(O)C1CCC(NC(=O)C2C(C3CCCCC3)CCCN2C(=O)/C=C/c2cc(Cl)ccc2-n2cnnn2)CC1` (stereo not shown) [Example 1-6, 2,2,2-trifluoroacetate], 5250 nM; in that of `O=C(/C=C/c1cc(Cl)ccc1-n1cnnn1)N1CCCC(c2ccccc2)C1c1nc(-c2cccnc2)c[nH]1` (stereo not shown) [Example 1-7, (E)-3-(5-chloro-2-(1H-tetrazol-1-yl)phenyl)-1-(3-phenyl-2-(4-(pyridin-3-yl)-1H-imidazol-2-yl)piperidin-1-yl)prop-2-en-1-one], 905 nM.
Then `N=C(N)N1CCC(C(=O)N2CCCC(c3ccccc3)C2C(=O)Nc2ccc(C(=O)O)cc2)CC1` (stereo not shown) [Example 1-8, 4-(1-(1-carbamimidoylpiperidine-4-carbonyl)-3-phenylpiperidine-2-carboxamido)benzoic acid], with 15.4 nM.
